Test system: HCV replicon
Test: HCV replicon replication assay (NPT ELISA) in Huh-7 replicon-containing cells
Type: cell-based
Details: Hepatitis C virus, 72 h; HCV replicon in Huh-7 cells, three days incubation; read-out: EC50
Method in brief: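 Replication was scored by capture ELISA of neomycin phosphotransferase, whose level tracks replicon replication, after graded compound treatment. The cells were Huh-7 harbouring an HCV-IRES/neo/EMCV-IRES/NS3–NS5B/3′-NTR replicon, plated at 6000-7500 cells/well and dosed 24 h later at 60-70% confluence; interferon alpha was the positive control.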

`C=C[C@@H]1C[C@]1(NC(=O)[C@@H]1C[C@@H](Oc2cc(-c3ccccc3)nc3cc(OC)ccc23)CN1C(=O)[C@@H](CC(=O)N1CCC(c2ccccc2)CC1)C(C)(C)C)C(=O)NS(=O)(=O)C1CC1` [Compound 182, (2S,4R)-1-((S)-2-tert-butyl-4-oxo-4-(4-phenylpiperidin-1-yl)butanoyl)-N-((1R,2S)-1-(cyclopropylsulfonyl-carbamoyl)-2-vinylcyclopropyl)-4-(7-methoxy-2-phenylquinolin-4-yloxy)pyrrolidine-2-carboxamide] and `C=C[C@@H]1C[C@]1(NC(=O)[C@@H]1C[C@@H](Oc2cc(-c3ccccc3)nc3cc(OC)ccc23)CN1C(=O)[C@@H](CC(=O)N1C2CCC1CC(=O)C2)C(C)(C)C)C(=O)NS(=O)(=O)C1CC1` [Compound 169, (2S,4R)-1-((2S)-2-tert-butyl-4-oxo-4-(3-oxo-8-aza-bicyclo[3.2.1]octan-8-yl)butanoyl)-N-((1R,2S)-1-(cyclopropyl-sulfonylcarbamoyl)-2-vinylcyclopropyl)-4-(7-methoxy-2-phenylquinolin-4-yloxy)pyrrolidine-2-carboxamide] cannot be ordered by EC50: < 1 µM for the first, < 1 µM for the second.

`C=C[C@@H]1C[C@]1(NC(=O)[C@@H]1C[C@@H](Oc2cc(-c3ccccc3)nc3cc(OC)ccc23)CN1C(=O)[C@@H](CC(=O)N1CCN(S(=O)(=O)CC)CC1)C(C)(C)C)C(=O)NS(=O)(=O)C1CC1` [Compound 195, (2S,4R)-1-((S)-2-tert-butyl-4-(4-(ethylsulfonyl)piper-azin-1-yl)-4-oxobutanoyl)-N-((1R)-1-(cyclopropylsulfonyl-carbamoyl)-2-vinylcyclopropyl)-4-(7-methoxy-2-phenylquinolin-4-yloxy)pyrrolidine-2-carboxamide] and `C=C[C@@H]1C[C@]1(NC(=O)[C@@H]1C[C@@H](Oc2cc(-c3ccccc3)nc3cc(OC)ccc23)CN1C(=O)[C@@H](CC(=O)N1CCCCC1)C(C)(C)C)C(=O)NS(=O)(=O)C1(C)CC1` [Compound 106, (2S,4R)-1-((S)-2-tert-butyl-4-oxo-4-(piperidin-1-yl)butanoyl)-4-(7-methoxy-2-phenylquinolin-4-yloxy)-N-((1R,2S)-1-(1-methylcyclopropyl-sulfonylcarbamoyl)-2-vinylcyclo-propyl)pyrrolidine-2-carboxamide] cannot be ordered by EC50: < 1 µM for the first, < 1 µM for the second.

`C=C[C@@H]1C[C@]1(NC(=O)[C@@H]1C[C@@H](NC(=O)n2c3ccccc3c3ccccc32)CN1C(=O)[C@@H](CC(=O)N1CCCC(F)C1)C(C)(C)C)C(=O)NS(=O)(=O)C1CC1` (stereo partly drawn) [Compound 188, N-((3R,5S)-1-((2S)-2-tert-butyl-4-(3-fluoropiperidin-1-yl)-4-oxobutanoyl)-5-((1R,2S)-1-(cyclopropylsulfonyl-carbamoyl)-2-vinyl-cyclopropyl-carbamoyl)pyrrolidin-3-yl)-9H-carbazole-9-carboxamide] and `C=C[C@@H]1C[C@]1(NC(=O)[C@@H]1C[C@@H](NC(=O)n2c3ccccc3c3ccccc32)CN1C(=O)[C@@H](CC(=O)N1CCC(C(F)(F)F)CC1)C(C)(C)C)C(=O)NS(=O)(=O)C1CC1` [Compound 190, N-((3R,5S)-1-((S)-2-tert-butyl-4-oxo-4-(4-(trifluoromethyl)piper-idin-1-yl)butanoyl)-5-((1R,2S)-1-(cyclopropylsulfonyl-carbamoyl)-2-vinylcyclopropyl-carbamoyl)pyrrolidin-3-yl)-9H-carbazole-9-carboxamide] cannot be ordered by EC50: < 1 µM for the first, < 1 µM for the second.

`C=C[C@@H]1C[C@]1(NC(=O)[C@@H]1C[C@@H](O)CN1C(=O)[C@@H](CC(=O)N1CCCCC1)C(C)(C)C)C(=O)NS(=O)(=O)C1CC1` [Compound 84, (2S,4R)-1-((S)-2-tert-butyl-4-oxo-4-(piperidin-1-yl)butanoyl)-N-((1R,2S)-1-(cyclo-propylsulfonyl-carbamoyl)-2-vinylcyclopropyl)-4-hydroxypyrrolidine-2-carboxamide] showed an EC50 of 1 to 10 µM.
